Results published in patent US11739194B2, “Glycerol-silicone elastomers as active matrices with controllable release profiles” (Danmarks Tekniske Universitet, priority 2017, dated 2023).

Assays:
[1] = Erythrosine B and hydroquinone release from dual compartment glycerol-silicone elastomer immersed in deionized water (UV-vis); type: physicochemical; details: for release kinetics (order): dual compartment elastomer, 80 phr total glycerol concentration
Method: For the present experiment two solutions were prepared—glycerol-erythrosine B and glycerol-hydroquinone solutions. Glycerol-erythrosine B solution contained 4 g of glycerol and 0.04 g of erythrosine B. Glycerol-hydroquinone solution contained 4 g of glycerol and 0.2 g of hydroquinone. Single emulsions were prepared as detailed above and were subsequently used to prepare two distinct glycerol-in-silicone emulsions. The glycerol-erythrosine B and glycerol-hydroquinone solutions were each added to 5 g of a silicone prepolymer in respective, separate containers. In this case, Sylgard 184 silicone kit from Dow Corning was applied. The respective mixtures were subsequently speed-mixed for 2 to 5 minutes using a dual asymmetric centrifuge DAC SpeedMixer. To prepare the dual compartment silicone elastomers, the two glycerol-in-silicone emulsions were combined. Desired amounts of each of the emulsions were placed into a speed-mixing cup. The composition was subsequently speed-mixed at low mixing rates (typically between from 500 to 1000 rpm) for around 1 minute in order to uniformly distribute both types of droplets within the silicone matrix. Stable emulsions can be mixed with any given speed. […] After combining and mixing both single emulsions a dual compartment emulsion was obtained. The emulsion contained 10 g of silicone, 4.04 g of glycerol droplets containing erythrosine B and 4.2 g of glycerol droplets containing hydroquinone. The total mass of the emulsion was 18.24 g. In a final step, the elastomer emulsions were cured at 80° C. for 1 hour. Long exposure to high temperatures results in glycerol evaporation therefore prolonged high temperature curing should be avoided. […] Release profiles of erythrosine and hydroquinone from the glycerol-silicone elastomers were determined by immersing composites in deionized water. The progress of release of erythrosine B and hydroquinone was monitored by measuring changes in concentration of both compounds in the aqueous environment. […] Each release profile curve represents an average of three separate experiments. Films with thickness of 0.3 mm were investigated. Such thin films tend to self-adhere therefore they were mounted onto custom-made frames (FIG. 4) to maintain a constant exposed surface area and placed in beakers equipped with magnetic stirring.

[2] = Hydroquinone release from single compartment glycerol-silicone elastomers immersed in deionized water (UV-vis); type: physicochemical; details: hydroquinone alone (single glycerol phase), 80 phr total glycerol concentration
Method: The example provided leads to a 1.42 g batch of material that may readily be scaled up or down. Using the described method batches from between 1 g and 80 g were prepared. Hydroquinone (HQ, 0.02 g, 5 wt. %) was dissolved in glycerol (0.4 g) at 50° C. using magnetic stirring until a clear solution was obtained (typically around 1-2 hours). […] Sample nomenclature uses the pattern GX HQY S184 Z, where G and X correspond to glycerol and concentration of glycerol in phr (weight parts per hundred weight parts of silicone elastomer), HQ and Y correspond to hydroquinone and concentration of hydroquinone dissolved in glycerol (expressed as weight percentage of HQ in glycerol) and S184 corresponds to applied silicone composition, respectively. […]
Release profiles of HQ from the glycerol-silicone elastomers were determined by immersing composites containing various amounts of glycerol with 5 wt % of HQ in deionized water. The progress of hydroquinone release was monitored by measuring changes in concentration of hydroquinone in the aqueous environment. A UV-vis spectrophotometer POLARstar Omega microplate reader by BMG LabTech was used for the tests, and outcomes were compared against a calibration curve for hydroquinone/water solutions. […]

amount released ([1]; after 28 hours, 0.3 mm thick dual compartment elastomer, 80 phr glycerol in total) [%] | release kinetics (order) [2] | time after which the entire incorporated amount was released ([1]; 0.3 mm thick dual compartment elastomer, 40 phr glycerol with erythrosine B + 40 phr glycerol with hydroquinone) | share of the total amount released with zero-order kinetics ([1]; 0.3 mm thick dual compartment elastomer, 80 phr glycerol in total) [%] | Compound | release kinetics (order) [1]
15 |  |  |  | erythrosine B | zero-order kinetics throughout the whole experiment
 | near-zero order release kinetics | around 6 hours | ~80 | Oc1ccc(O)cc1 [hydroquinone] | zero-order release kinetics
